Results taken from ChEMBL document CHEMBL1208741, “Docking and SAR studies of salacinol derivatives as alpha-glucosidase inhibitors” (Bioorg Med Chem Lett, 2010).

Assay: Inhibition of alpha glucosidase

Structure (SMILES)	pIC50
[O-][C@@H](CO)[C@H](O)C[S@+]1C[C@@H](O)[C@H](O)[C@H]1CO [NEOSALACINOL]	5.1
O=S(=O)([O-])O[C@@H](CO)CC[S@+]1C[C@@H](O)[C@H](O)[C@H]1CO	< 3
O=S(=O)([O-])O[C@H](CO)[C@@H](O)C[S@+]1C[C@@H](O)[C@H](O)[C@H]1CO	< 3
O=S(=O)([O-])O[C@@H](CO)[C@H](O)C[S@+]1C[C@@H](O)[C@H](O)[C@H]1CO [SALACINOL]	5.28
[O-]CC[C@H](O)C[S@+]1C[C@@H](O)[C@H](O)[C@H]1CO	3.94
[O-]C[C@@H](O)[C@@H](O)C[S@+]1C[C@@H](O)[C@H](O)[C@H]1CO	< 3
O=S(=O)([O-])OC[C@H](O)C[S@+]1C[C@@H](O)[C@H](O)[C@H]1CO [SALAPRINOL]	3
O=S(=O)([O-])OCCC[S@+]1C[C@@H](O)[C@H](O)[C@H]1CO	< 3
